Series [1] is described as follows: Equilibrium surface tension, Kruss K-12 tensiometer with platinum Wilhelmy plate. It counts as physicochemical. As to conditions: 25±1° C.; for EST (0.01 WT %, mN/m): 0.01 wt % in water; for EST (0.1 WT %, mN/m): 0.1 wt % in water; for EST (1.0 WT %, mN/m): 1.0 wt % in water. On the procedure: Equilibrium surface tensions were determined using a Kruss K-12 tensiometer with a platinum Wilhelmy plate, maintaining the temperature at 25±1° C. by means of a constant temperature circulating bath.

A short description of series [2]: Dynamic surface tension, maximum bubble pressure method. It counts as physicochemical. As to conditions: for DST (0.1 WT %, mN/m) 0.1 b/s / DST (0.1 WT %, mN/m) 10 b/s: 0.1 wt % in distilled and deionized water; for DST (0.1 WT %, mN/m) 0.1 b/s / DST (0.5 WT %, mN/m) 0.1 b/s: 0.1 bubbles/sec; for DST (0.1 WT %, mN/m) 10 b/s / DST (0.5 WT %, mN/m) 10 b/s: 10 bubbles/sec; for DST (0.5 WT %, mN/m) 0.1 b/s / DST (0.5 WT %, mN/m) 10 b/s: 0.5 wt % in distilled and deionized water. On the procedure: Solutions in distilled and deionized water of the surfactants of the invention were prepared. […] In a practical sense, high surface creation rates refer to rapid processes such as a spray or roller-applied coating, a high speed printing operation, or the rapid application of an agricultural product or a cleaner.

The nature of series [3]: Ross-Miles foam test (modified, ASTM D1173-53). The note with it: surfactant in water; 0.01 wt % and 0.1 wt %, table does not say which. It counts as physicochemical.
The nature of series [4]: Cleaning performance, ASTM D4488-95, reflectance of white vinyl composition tile. As to conditions: 0.1% (wt %) surfactant. The text has this: Although dynamic and equilibrium surface tension as well as foam influence the cleaning ability of a surfactant, other factors also affect cleaning performance. Thus one good way to determine the cleaning ability of a surfactant is to apply a soil to a substrate, clean that substrate with the surfactant of interest and some benchmark surfactants, and compare relative cleaning efficacies in terms of percent soil removal. One method for conducting such testing is described in ASTM D4488-95, “Standard Guide for Testing Cleaning Performance of Products Intended for Use on Resilient Flooring and Washable Walls.” This method was followed according to the particulate and oily soil/vinyl tiles test methodology, with cleaning performance being evaluated by reading average reflectance values (5 readings/tile) of a white vinyl composition tile before and after cleaning (Table 6). The higher the reflectance value the better the cleaning ability of the surfactant.
The cleaning performance of surfactants according to the invention was compared side by side with that of two benchmark surfactants, Neodol 23-6.5 (available from Shell Chemical of Houston, Tex.) and AG 6202 (available from Akzo Nobel of McCook, Ill.), an alcohol ethoxylate and an alkylpolyglucoside surfactant, respectively.

The nature of series [5]: Aqueous solubility comparison. The note with it: in water.
Description: Comparison of the aqueous solubilities of several N,N′-dialkyl-N,N′-bis(1-deoxyglucityl)ethylenediamines was performed, with the results as follows:
The ratios of compounds are on a molar basis.

On to `CCCCN(CCN(CCCC)C[C@H](O)[C@@H](O)[C@H](O)[C@H](O)CO)C[C@H](O)[C@@H](O)[C@H](O)[C@H](O)CO` [DBDGEDA, N,N′-dibutyl-N,N′-bis(1-deoxyglucityl)-1,2-diaminoethane], for which, in series [1], the “EST (0.01 WT %, mN/m)” value turned out to be 62 mN/m; the “EST (0.1 WT %, mN/m)” value is listed as 50 mN/m; the “EST (1.0 WT %, mN/m)” value turned out to be 47 mN/m. In series [2], the “DST (0.1 WT %, mN/m) 0.1 b/s” value worked out at 63 mN/m; the “DST (0.1 WT %, mN/m) 10 b/s” value is on record as 67 mN/m; the “DST (0.5 WT %, mN/m) 0.1 b/s” value came to 56 mN/m; the “DST (0.5 WT %, mN/m) 10 b/s” value is recorded as 47 mN/m. For the same compound, the “dynamic surface tension reduction in words” value in series [2] (Table 4 data, strong at low bubble rates) is “moderate to low”. Further, in series [3], the “Ross Miles Final Foam (cm)” value was 0.5 cm and the “Ross Miles Initial Foam (cm)” value turned out to be 1.8 cm. Also, in series [4], the “% SOIL REMOVAL” value worked out at 45%.

`CCCCCCN(CCN(CCCCCC)C[C@H](O)[C@@H](O)[C@H](O)[C@H](O)CO)C[C@H](O)[C@@H](O)[C@H](O)[C@H](O)CO` [DHDGEDA, N,N′-dihexyl-N,N′-bis(1-deoxyglucityl)-1,2-diaminoethane]: in series [1], the “EST (0.01 WT %, mN/m)” value was determined as 57 mN/m; the “EST (0.1 WT %, mN/m)” value was determined as 33 mN/m; the “EST (1.0 WT %, mN/m)” value is on record as 30 mN/m. Also, in series [2], the “DST (0.1 WT %, mN/m) 0.1 b/s” value was determined as 37 mN/m; the “DST (0.1 WT %, mN/m) 10 b/s” value worked out at 51 mN/m; the “DST (0.5 WT %, mN/m) 0.1 b/s” value is given as 30 mN/m; the “DST (0.5 WT %, mN/m) 10 b/s” value was 32 mN/m. Also, in series [3], the “Ross Miles Final Foam (cm)” value turned out to be 1.5 cm and the “Ross Miles Initial Foam (cm)” value is given as 3.6 cm. In addition, the “% SOIL REMOVAL” value in series [4] is given as 67%. Further, the “aqueous solubility in words” value in series [5] is “extreme insolubility”.

Take `CCCCNC[C@H](O)[C@@H](O)[C@H](O)[C@H](O)CO` [N-Butylglucamine]: the “EST (1.0 WT %, mN/m)” value in series [1] is given as “≧50 mN/m”. In series [2], the “DST (0.1 WT %, mN/m) 0.1 b/s” value is 71 mN/m; the “DST (0.1 WT %, mN/m) 10 b/s” value is reported as 72 mN/m; the “DST (0.5 WT %, mN/m) 0.1 b/s” value is 70 mN/m; the “DST (0.5 WT %, mN/m) 10 b/s” value worked out at 71 mN/m. Further, in series [3], the “Ross Miles Final Foam (cm)” value was found to be 0.3 cm and the “Ross Miles Initial Foam (cm)” value was 2.5 cm.

With `CCCCCCNC[C@H](O)[C@@H](O)[C@H](O)[C@H](O)CO` [N-Hexylglucamine], in series [1], the “EST (0.01 WT %, mN/m)” value came out at 64 mN/m; the “EST (0.1 WT %, mN/m)” value is 60 mN/m; the “EST (1.0 WT %, mN/m)” value was 52 mN/m. Moreover, in series [2], the “DST (0.1 WT %, mN/m) 0.1 b/s” value was found to be 68 mN/m; the “DST (0.1 WT %, mN/m) 10 b/s” value was determined as 70 mN/m; the “DST (0.5 WT %, mN/m) 0.1 b/s” value is reported as 55 mN/m; the “DST (0.5 WT %, mN/m) 10 b/s” value amounted to 57 mN/m. For the same compound, in series [3], the “Ross Miles Final Foam (cm)” value came out at 1.0 cm and the “Ross Miles Initial Foam (cm)” value is recorded as 2.0 cm.

For `CCCCCCCCNC[C@H](O)[C@@H](O)[C@H](O)[C@H](O)CO` [N-Octylglucamine], in series [1], the “EST (0.01 WT %, mN/m)” value was 55 mN/m; the “EST (0.1 WT %, mN/m)” value is given as 35 mN/m; the “EST (1.0 WT %, mN/m)” value is 35 mN/m. Moreover, in series [2], the “DST (0.1 WT %, mN/m) 0.1 b/s” value was 54 mN/m; the “DST (0.1 WT %, mN/m) 10 b/s” value is reported as 65 mN/m; the “DST (0.5 WT %, mN/m) 0.1 b/s” value is on record as 48 mN/m; the “DST (0.5 WT %, mN/m) 10 b/s” value amounted to 62 mN/m. Also, in series [3], the “Ross Miles Final Foam (cm)” value was 0.3 cm and the “Ross Miles Initial Foam (cm)” value is 2.0 cm.

Take “N,N′-dioctyl-N,N′-bis(1-deoxyglucityl)ethylenediamine [DODGEDA]”: the “% SOIL REMOVAL” value in series [4] worked out at 48%.

The record behind these values is patent US20060013780A1, “N,N'-dialkyl derivatives of polyhydroxyalkyl alkylenediamines” (priority 2004, published 2006).
